Test results reported in ChEMBL document CHEMBL1140860, “Synthesis and evaluation of dihydroartemisinin and dihydroartemisitene acetal dimers showing anticancer and antiprotozoal activity” (Bioorg Med Chem, 2009).

How the values were obtained:
CCRF-CEM = assay: Growth inhibition of human CCRF-CEM cells after 48 hrs by sulforhodamine B assay; type: functional
HL-60 = assay: Growth inhibition of human HL-60(TB) cells after 48 hrs by sulforhodamine B assay; type: functional; conditions: HL-60, 48 h
K562 = assay: Growth inhibition of human K562 cells after 48 hrs by sulforhodamine B assay; type: functional; conditions: K562, 48 h
[1] = Growth inhibition of human […] cells after 48 hrs by sulforhodamine B assay; type: functional
SR = assay: Growth inhibition of human SR cells after 48 hrs by sulforhodamine B assay; type: functional
A549 = assay: Growth inhibition of human A549 cells after 48 hrs by sulforhodamine B assay; type: functional; conditions: A549, 48 h
HCC 2998 = assay: Growth inhibition of human HCC2998 cells after 48 hrs by sulforhodamine B assay; type: functional; conditions: HCC 2998, 48 h
HCT-116 = assay: Growth inhibition of human HCT116 cells after 48 hrs by sulforhodamine B assay; type: functional; conditions: HCT-116, 48 h
HCT-15 = assay: Growth inhibition of human HCT15 cells after 48 hrs by sulforhodamine B assay; type: functional; conditions: HCT-15, 48 h
HT-29 = assay: Growth inhibition of human HT-29 cells after 48 hrs by sulforhodamine B assay; type: functional; conditions: HT-29, 48 h
KM12 = assay: Growth inhibition of human KM12 cells after 48 hrs by sulforhodamine B assay; type: functional; conditions: KM12, 48 h
SW-620 = assay: Growth inhibition of human SW620 cells after 48 hrs by sulforhodamine B assay; type: functional; conditions: SW-620, 48 h
SF-295 = assay: Growth inhibition of human SF295 cells after 48 hrs by sulforhodamine B assay; type: functional; conditions: SF-295, 48 h
LOX IMVI = assay: Growth inhibition of human LOXIMVI cells after 48 hrs by sulforhodamine B assay; type: functional
M14 = assay: Growth inhibition of human M14 cells after 48 hrs by sulforhodamine B assay; type: functional; conditions: M14, 48 h
Malme-3M = assay: Growth inhibition of human MALME-3M cells after 48 hrs by sulforhodamine B assay; type: functional
SK-MEL-2 = assay: Growth inhibition of human SK-MEL-2 cells after 48 hrs by sulforhodamine B assay; type: functional; conditions: SK-MEL-2, 48 h
SK-MEL-28 = assay: Growth inhibition of human SK-MEL-28 cells after 48 hrs by sulforhodamine B assay; type: functional; conditions: SK-MEL-28, 48 h
SK-MEL-5 = assay: Growth inhibition of human SK-MEL-5 cells after 48 hrs by sulforhodamine B assay; type: functional; conditions: SK-MEL-5, 48 h
UACC-257 = assay: Growth inhibition of human UACC257 cells after 48 hrs by sulforhodamine B assay; type: functional; conditions: UACC-257, 48 h
OVCAR-4 = assay: Growth inhibition of human OVCAR4 cells after 48 hrs by sulforhodamine B assay; type: functional; conditions: OVCAR-4, 48 h
OVCAR-5 = assay: Growth inhibition of human OVCAR5 cells after 48 hrs by sulforhodamine B assay; type: functional; conditions: OVCAR-5, 48 h
SK-OV-3 = assay: Growth inhibition of human SKOV3 cells after 48 hrs by sulforhodamine B assay; type: functional; conditions: SK-OV-3, 48 h
786-0 = assay: Growth inhibition of human 786-0 cells after 48 hrs by sulforhodamine B assay; type: functional; conditions: 786-0, 48 h
ACHN = assay: Growth inhibition of human ACHN cells after 48 hrs by sulforhodamine B assay; type: functional
CAKI-1 = assay: Growth inhibition of human Caki1 cells after 48 hrs by sulforhodamine B assay; type: functional; conditions: CAKI-1, 48 h
RXF 393 = assay: Growth inhibition of human RXF393 cells after 48 hrs by sulforhodamine B assay; type: functional; conditions: RXF 393, 48 h
SN12C = assay: Growth inhibition of human SN12C cells after 48 hrs by sulforhodamine B assay; type: functional
TK-10 = assay: Growth inhibition of human TK10 cells after 48 hrs by sulforhodamine B assay; type: functional; conditions: TK-10, 48 h
UO-31 = assay: Growth inhibition of human UO31 cells after 48 hrs by sulforhodamine B assay; type: functional; conditions: UO-31, 48 h
PC-3 = assay: Growth inhibition of human PC3 cells after 48 hrs by sulforhodamine B assay; type: functional; conditions: PC-3, 48 h
DU-145 = assay: Growth inhibition of human DU145 cells after 48 hrs by sulforhodamine B assay; type: functional; conditions: DU-145, 48 h
MCF7 = assay: Growth inhibition of human MCF7 cells after 48 hrs by sulforhodamine B assay; type: functional; conditions: MCF7, 48 h
NCI/ADR-RES = assay: Growth inhibition of human NCI/ADR-RES cells after 48 hrs by sulforhodamine B assay; type: functional
MDA-MB-231 = assay: Growth inhibition of human MDA-MB-231 cells after 48 hrs by sulforhodamine B assay; type: functional; conditions: MDA-MB-231, 48 h
[2] = Growth inhibition of human Hs 578T cells after 48 hrs by sulforhodamine B assay; type: functional
MDA-MB-435 = assay: Growth inhibition of human MDA-MB-435 cells after 48 hrs by sulforhodamine B assay; type: functional; conditions: MDA-MB-435, 48 h
T47D = assay: Growth inhibition of human T47D cells after 48 hrs by sulforhodamine B assay; type: functional
Plasmodium falciparum [3] = assay: Antimalarial activity after 72 hrs against chloroquine-sensitive Plasmodium falciparum D6 infected in erythrocytes by LDH assay; type: functional, organism-based; conditions: D6, 72 h
[4] = Selectivity index, ratio of TC50 for african green monkey (Cercopithecus aethiops) Vero cells to IC50 for chloroquine-sensitive Plasmodium falciparum D6; type: toxicity, cell-based
Plasmodium falciparum [5] = assay: Antimalarial activity after 72 hrs against chloroquine-resistant Plasmodium falciparum W2 infected erythrocytes by LDH assay; type: functional, organism-based; conditions: W2, 72 h
[6] = Selectivity index, ratio of TC50 for african green monkey (Cercopithecus aethiops) Vero cells to IC50 for chloroquine-resistant Plasmodium falciparum W2; type: toxicity, cell-based
[7] = Cytotoxicity against african green monkey Vero cells after 48 hrs by neutral red assay; type: cell-based; conditions: chlorocebus sabaeus, read-out: TC50
HOP-62 = assay: Growth inhibition of human HOP62 cells after 48 hrs by sulforhodamine B assay; type: functional; conditions: HOP-62, 48 h
NCI-H226 = assay: Growth inhibition of human NCI-H226 cells after 48 hrs by sulforhodamine B assay; type: functional; conditions: NCI-H226, 48 h
NCI-H23 = assay: Growth inhibition of human NCI-H23 cells after 48 hrs by sulforhodamine B assay; type: functional; conditions: NCI-H23, 48 h
NCI-H322M = assay: Growth inhibition of human NCI-H322M cells after 48 hrs by sulforhodamine B assay; type: functional
NCI-H460 = assay: Growth inhibition of human NCI-H460 cells after 48 hrs by sulforhodamine B assay; type: functional; conditions: NCI-H460, 48 h
NCI-H522 = assay: Growth inhibition of human NCI-H522 cells after 48 hrs by sulforhodamine B assay; type: functional; conditions: NCI-H522, 48 h
COLO 205 = assay: Growth inhibition of human COLO205 cells after 48 hrs by sulforhodamine B assay; type: functional; conditions: COLO 205, 48 h

C[C@H]1[C@H](OCCO[C@H]2O[C@@H]3O[C@@]4(C)CC[C@H]5[C@H](C)CC[C@@H]([C@H]2C)[C@@]35OO4)O[C@@H]2O[C@@]3(C)CC[C@H]4[C@H](C)CC[C@@H]1[C@@]24OO3
GI50 (CCRF-CEM): 25 nM | GI50 (HL-60): 15 nM | GI50 (K562): 20 nM | GI50 [1]: < 8 nM | GI50 (SR): 25 nM | GI50 (A549): 59 nM | GI50 (HCC 2998): 67 nM | GI50 (HCT-116): 30 nM | GI50 (HCT-15): 17 nM | GI50 (HT-29): 38 nM | GI50 (KM12): 33 nM | GI50 (SW-620): 25 nM | GI50 (SF-295): 1100 nM | GI50 (LOX IMVI): 30 nM | GI50 (M14): 7600 nM | GI50 (Malme-3M): 235 nM | GI50 (SK-MEL-2): 212 nM | GI50 (SK-MEL-28): 727 nM | GI50 (SK-MEL-5): 34 nM | GI50 (UACC-257): 54 nM | GI50 (OVCAR-4): 41 nM | GI50 (OVCAR-5): 59 nM | GI50 (SK-OV-3): 17900 nM | GI50 (786-0): 324 nM | GI50 (ACHN): 224 nM | GI50 (CAKI-1): 90 nM | GI50 (RXF 393): 54 nM | GI50 (SN12C): 55 nM | GI50 (TK-10): 64 nM | GI50 (UO-31): 35 nM | GI50 (PC-3): 22 nM | GI50 (DU-145): 8190 nM | GI50 (MCF7): 28 nM | GI50 (NCI/ADR-RES): 55 nM | GI50 (MDA-MB-231): 534 nM | GI50 [2]: 7650 nM | GI50 (MDA-MB-435): 45 nM | GI50 (T47D): 16 nM | IC50 (Plasmodium falciparum [3]): 31900 nM | selectivity ratio [4]: > 25 | IC50 (Plasmodium falciparum [5]): 21900 nM | selectivity ratio [6]: > 37 | CC50 at 48 h [7]: > 800000 nM | GI50 (HOP-62): 11600 nM | GI50 (NCI-H226): 9540 nM | GI50 (NCI-H23): 36 nM | GI50 (NCI-H322M): 7900 nM | GI50 (NCI-H460): 46 nM | GI50 (NCI-H522): 680 nM | GI50 (COLO 205): 15 nM
